Measurements published in ChEMBL document CHEMBL3621178, “Antidiabetic effect of novel benzenesulfonylureas as PPAR-γ agonists and their anticancer effect” (Bioorg Med Chem Lett, 2015).

Columns and labels:
Type in all cases: functional
SK-MEL-5 = experiment: Growth inhibition of human SK-MEL-5 cells assessed as cell viability at 10 uM incubated for 48 hrs by sulforhodamine B assay; conditions: SK-MEL-5, 48 h, read-out: Activity
SNB-75 = experiment: Growth inhibition of human SNB75 cells assessed as cell viability at 10 uM incubated for 48 hrs by sulforhodamine B assay; conditions: SNB-75, 48 h, read-out: Activity
M14 = experiment: Growth inhibition of human M14 cells assessed as cell viability at 10 uM incubated for 48 hrs by sulforhodamine B assay; conditions: M14, 48 h, read-out: Activity
[1] = Growth inhibition of human SF539 cells assessed as cell viability at 10 uM incubated for 48 hrs by sulforhodamine B assay; conditions: SF-539, 48 h, read-out: Activity
[2] = Growth inhibition of human RPMI8226 cells assessed as cell viability at 10 uM incubated for 48 hrs by sulforhodamine B assay; conditions: RPMI-8226, 48 h, read-out: Activity
T47D = experiment: Growth inhibition of human T47D cells assessed as cell viability at 10 uM incubated for 48 hrs by sulforhodamine B assay; conditions: read-out: Activity
UO-31 = experiment: Growth inhibition of human UO31 cells assessed as cell viability at 10 uM incubated for 48 hrs by sulforhodamine B assay; conditions: UO-31, 48 h, read-out: Activity
OVCAR-3 = experiment: Growth inhibition of human OVCAR3 cells assessed as cell viability at 10 uM incubated for 48 hrs by sulforhodamine B assay; conditions: OVCAR-3, 48 h, read-out: Activity
HCT-15 = experiment: Growth inhibition of human HCT15 cells assessed as cell viability at 10 uM incubated for 48 hrs by sulforhodamine B assay; conditions: HCT-15, 48 h, read-out: Activity
MCF7 = experiment: Growth inhibition of human MCF7 cells assessed as cell viability at 10 uM incubated for 48 hrs by sulforhodamine B assay; conditions: MCF7, 48 h, read-out: Activity
[3] = Growth inhibition of human RXF393 cells assessed as cell viability at 10 uM incubated for 48 hrs by sulforhodamine B assay; conditions: RXF 393, 48 h, read-out: Activity
SW-620 = experiment: Growth inhibition of human SW620 cells assessed as cell viability at 10 uM incubated for 48 hrs by sulforhodamine B assay; conditions: SW-620, 48 h, read-out: Activity
U-251 = experiment: Growth inhibition of human U251 cells assessed as cell viability at 10 uM incubated for 48 hrs by sulforhodamine B assay; conditions: U-251, 48 h, read-out: Activity
[4] = Growth inhibition of human HCC2998 cells assessed as cell viability at 10 uM incubated for 48 hrs by sulforhodamine B assay; conditions: HCC 2998, 48 h, read-out: Activity
SF-268 = experiment: Growth inhibition of human SF268 cells assessed as cell viability at 10 uM incubated for 48 hrs by sulforhodamine B assay; conditions: SF-268, 48 h, read-out: Activity
HCT-116 = experiment: Growth inhibition of human HCT116 cells assessed as cell viability at 10 uM incubated for 48 hrs by sulforhodamine B assay; conditions: HCT-116, 48 h, read-out: Activity
NCI-H226 = experiment: Growth inhibition of human NCI-H226 cells assessed as cell viability at 10 uM incubated for 48 hrs by sulforhodamine B assay; conditions: NCI-H226, 48 h, read-out: Activity
SR = experiment: Growth inhibition of human SR cells assessed as cell viability at 10 uM incubated for 48 hrs by sulforhodamine B assay; conditions: read-out: Activity
A549 = experiment: Growth inhibition of human A549/ATCC cells assessed as cell viability at 10 uM incubated for 48 hrs by sulforhodamine B assay; conditions: A549, 48 h, read-out: Activity
[5] = Growth inhibition of human MOLT4 cells assessed as cell viability at 10 uM incubated for 48 hrs by sulforhodamine B assay; conditions: MOLT-4, 48 h, read-out: Activity
MDA-MB-231 = experiment: Growth inhibition of human MDA-MB-231 cells assessed as cell viability at 10 uM incubated for 48 hrs by sulforhodamine B assay; conditions: MDA-MB-231, 48 h, read-out: Activity
SN12C = experiment: Growth inhibition of human SN12C cells assessed as cell viability at 10 uM incubated for 48 hrs by sulforhodamine B assay; conditions: read-out: Activity
[6] = Growth inhibition of human HOP92 cells assessed as cell viability at 10 uM incubated for 48 hrs by sulforhodamine B assay; conditions: HOP-92, 48 h, read-out: Activity
K562 = experiment: Growth inhibition of human K562 cells assessed as cell viability at 10 uM incubated for 48 hrs by sulforhodamine B assay; conditions: K562, 48 h, read-out: Activity
[7] = Growth inhibition of human NCI60 cells assessed as cell viability at 10 uM incubated for 48 hrs by sulforhodamine B assay; conditions: NCI60, 48 h, read-out: Activity
[8] = Growth inhibition of human SF295 cells assessed as cell viability at 10 uM incubated for 48 hrs by sulforhodamine B assay; conditions: SF-295, 48 h, read-out: Activity
PC-3 = experiment: Growth inhibition of human PC3 cells assessed as cell viability at 10 uM incubated for 48 hrs by sulforhodamine B assay; conditions: PC-3, 48 h, read-out: Activity
CCRF-CEM = experiment: Growth inhibition of human CCRF-CEM cells assessed as cell viability at 10 uM incubated for 48 hrs by sulforhodamine B assay; conditions: read-out: Activity
HL-60(TB) = experiment: Growth inhibition of human HL-60(TB) cells assessed as cell viability at 10 uM incubated for 48 hrs by sulforhodamine B assay; conditions: HL-60, 48 h, read-out: Activity
NCI-H322M = experiment: Growth inhibition of human NCI-H322M cells assessed as cell viability at 10 uM incubated for 48 hrs by sulforhodamine B assay; conditions: read-out: Activity
NCI-H460 = experiment: Growth inhibition of human NCI-H460 cells assessed as cell viability at 10 uM incubated for 48 hrs by sulforhodamine B assay; conditions: NCI-H460, 48 h, read-out: Activity
OVCAR-4 = experiment: Growth inhibition of human OVCAR4 cells assessed as cell viability at 10 uM incubated for 48 hrs by sulforhodamine B assay; conditions: OVCAR-4, 48 h, read-out: Activity
CAKI-1 = experiment: Growth inhibition of human CAKI-1 cells assessed as cell viability at 10 uM incubated for 48 hrs by sulforhodamine B assay; conditions: CAKI-1, 48 h, read-out: Activity
[9] = Growth inhibition of human NCI-ADR-RES cells assessed as cell viability at 10 uM incubated for 48 hrs by sulforhodamine B assay; conditions: read-out: Activity
Malme-3M = experiment: Growth inhibition of human MALME-3M cells assessed as cell viability at 10 uM incubated for 48 hrs by sulforhodamine B assay; conditions: read-out: Activity
NCI-H23 = experiment: Growth inhibition of human NCI-H23 cells assessed as cell viability at 10 uM incubated for 48 hrs by sulforhodamine B assay; conditions: NCI-H23, 48 h, read-out: Activity

Structure (SMILES) | viability at 10 µM (SK-MEL-5) [%] | viability at 10 µM (SNB-75) [%] | viability at 10 µM (M14) [%] | viability at 10 µM [1] [%] | viability at 10 µM [2] [%] | viability at 10 µM (T47D) [%] | viability at 10 µM (UO-31) [%] | viability at 10 µM (OVCAR-3) [%] | viability at 10 µM (HCT-15) [%] | viability at 10 µM (MCF7) [%] | viability at 10 µM [3] [%] | viability at 10 µM (SW-620) [%] | viability at 10 µM (U-251) [%] | viability at 10 µM [4] [%] | viability at 10 µM (SF-268) [%] | viability at 10 µM (HCT-116) [%] | viability at 10 µM (NCI-H226) [%] | viability at 10 µM (SR) [%] | viability at 10 µM (A549) [%] | viability at 10 µM [5] [%] | further results
COc1ccc(C2CC(c3cc4ccccc4oc3=O)=NN2c2ccc(S(=O)(=O)NC(=O)Nc3ccccc3C)cc2)cc1 (stereo not given) | 97.2 | 78.3 | 91.8 | 85.8 | 85.8 | 95.8 | 68.9 | 107 | 95.8 | 91.1 | 116 | 97.1 | 99.4 | 107 | 101 | 82.6 | 85.4 | 80.4 | 96.6 | 84.6 | viability at 10 µM (MDA-MB-231): 65.9%; viability at 10 µM (SN12C): 99.2%; viability at 10 µM [6]: 60.7%; viability at 10 µM (K562): 76.8%; viability at 10 µM [7]: 93.4%; viability at 10 µM [8]: 93.8%; viability at 10 µM (PC-3): 81%; viability at 10 µM (CCRF-CEM): 92.6%; viability at 10 µM (HL-60(TB)): 108%; viability at 10 µM (NCI-H322M): 87.1%; viability at 10 µM (NCI-H460): 99.8%; viability at 10 µM (OVCAR-4): 86.9%; viability at 10 µM (CAKI-1): 83.8%; viability at 10 µM [9]: 98.1%; viability at 10 µM (Malme-3M): 104%; viability at 10 µM (NCI-H23): 87.7%
COc1ccc(C2CC(c3ccco3)=NN2c2ccc(S(=O)(=O)NC(=O)NCc3ccccc3)cc2)cc1 (stereo not given) | 102 | 97.8 | 102 | 90 | 102 | 84.6 | 99.4 | 113 | 101 | 94.7 | 113 | 104 | 99.3 | 109 | 103 | 93.9 | 97.1 | 107 | 92.8 | 110 | viability at 10 µM (MDA-MB-231): 112%; viability at 10 µM (SN12C): 106%; viability at 10 µM [6]: 80.6%; viability at 10 µM (K562): 98%; viability at 10 µM [7]: 101%; viability at 10 µM [8]: 95.9%; viability at 10 µM (PC-3): 92.4%; viability at 10 µM (CCRF-CEM): 99%; viability at 10 µM (HL-60(TB)): 126%; viability at 10 µM (NCI-H322M): 97.5%; viability at 10 µM (NCI-H460): 106%; viability at 10 µM (OVCAR-4): 97.1%; viability at 10 µM (CAKI-1): 97.7%; viability at 10 µM [9]: 104%; viability at 10 µM (Malme-3M): 107%; viability at 10 µM (NCI-H23): 108%
O=C(NCc1ccccc1)NS(=O)(=O)c1ccc(N2N=C(c3cc4ccccc4oc3=O)CC2c2cccs2)cc1 (stereo not given) | 101 | 82.3 | 98.8 | 103 | 105 | 97.4 | 95.7 | 106 | 106 | 94.4 | 123 | 108 | 102 | 106 | 103 | 106 | 98.4 | 98.8 | 99.3 | 106 | viability at 10 µM (MDA-MB-231): 103%; viability at 10 µM (SN12C): 98.4%; viability at 10 µM [6]: 94.2%; viability at 10 µM (K562): 111%; viability at 10 µM [7]: 103%; viability at 10 µM [8]: 93.8%; viability at 10 µM (PC-3): 108%; viability at 10 µM (CCRF-CEM): 108%; viability at 10 µM (HL-60(TB)): 119%; viability at 10 µM (NCI-H322M): 106%; viability at 10 µM (NCI-H460): 107%; viability at 10 µM (OVCAR-4): 98.2%; viability at 10 µM (CAKI-1): 94.2%; viability at 10 µM [9]: 103%; viability at 10 µM (Malme-3M): 90.7%; viability at 10 µM (NCI-H23): 101%
CN(C)c1ccc(C2CC(c3cc4ccccc4oc3=O)=NN2c2ccc(S(=O)(=O)NC(=O)NCc3ccccc3)cc2)cc1 (stereo not given) | 62.7 | 27.1 | 55 | 70.8 | 66.1 | 64 | 44.9 | 82.2 | 32.8 | 47.6 | 85.4 | 73.1 | 67.8 | 90 | 87.9 | 48.5 | 74 | 19.7 | 61 | 66.6 | viability at 10 µM (MDA-MB-231): 78.1%; viability at 10 µM (SN12C): 77.8%; viability at 10 µM [6]: 49.1%; viability at 10 µM (K562): 59.5%; viability at 10 µM [7]: 65.8%; viability at 10 µM [8]: 61.7%; viability at 10 µM (PC-3): 67.1%; viability at 10 µM (CCRF-CEM): 72%; viability at 10 µM (HL-60(TB)): 66.4%; viability at 10 µM (NCI-H322M): 79.6%; viability at 10 µM (NCI-H460): 65.3%; viability at 10 µM (OVCAR-4): 52.8%; viability at 10 µM (CAKI-1): 49.4%; viability at 10 µM [9]: 83.1%; viability at 10 µM (Malme-3M): 89.9%; viability at 10 µM (NCI-H23): 67.3%
COc1ccc(NC(=O)NS(=O)(=O)c2ccc(N3N=C(c4cc5ccccc5oc4=O)CC3c3ccc(N(C)C)cc3)cc2)cc1 (stereo not given) | 98.4 | 70.2 | 95.6 | 91.5 | 98 | 87.7 | 86 | 102 | 93.1 | 83.1 | 105 | 103 | 91.8 | 104 | 98.8 | 82.6 | 89.7 | 74.3 | 95 | 107 | viability at 10 µM (MDA-MB-231): 97%; viability at 10 µM (SN12C): 97.1%; viability at 10 µM [6]: 79.8%; viability at 10 µM (K562): 114%; viability at 10 µM [7]: 95.5%; viability at 10 µM [8]: 83.8%; viability at 10 µM (PC-3): 97.6%; viability at 10 µM (CCRF-CEM): 107%; viability at 10 µM (HL-60(TB)): 130%; viability at 10 µM (NCI-H322M): 99.9%; viability at 10 µM (NCI-H460): 105%; viability at 10 µM (OVCAR-4): 92.4%; viability at 10 µM (CAKI-1): 88.9%; viability at 10 µM [9]: 100%; viability at 10 µM (Malme-3M): 81%; viability at 10 µM (NCI-H23): 85.1%
